tested on: anti-drug mouse monoclonal antibodies; test: Biochip competitive immunoassay for prohibited substances in urine; type: binding; conditions: competitive immunoassay on chip

Going from `CC(N)Cc1ccccc1` (stereo not shown) [Amphetamine, amphetamine] to `C[C@H]1O[C@@H](O[C@H]2[C@@H](O)C[C@H](O[C@H]3[C@@H](O)C[C@H](O[C@H]4CC[C@@]5(C)[C@H](CC[C@@H]6[C@@H]5C[C@@H](O)[C@]5(C)[C@@H](C7=CC(=O)OC7)CC[C@]65O)C4)O[C@@H]3C)O[C@@H]2C)C[C@H](O)[C@@H]1O` [Digoxin, digoxin], the “Cutoff value (the 50% inhibitory concentration)” value falls from 5.2 µg/L to 2.8 µg/L (1.9-fold).

First: CN[C@@H](C)Cc1ccccc1 [Methamphetamine]
Second: C[C@]12CC[C@H]3[C@@H](CCC4=CC(=O)CC[C@@]43C)[C@@H]1CC[C@@H]2O [Testosterone]
The “Cutoff value (the 50% inhibitory concentration)” value of the first is 6.7-fold higher: 4.0 µg/L for the first, 0.6 µg/L for the second.

For gentamicin, the “Cutoff value (the 50% inhibitory concentration)” value was 2.5 µg/L.

tested on: anti-morphine antibodies; test: Qualitative screening of athlete urines on chip (morphine); type: binding, mouse; conditions: athlete urine samples containing the substance

For `COc1ccc2c3c1O[C@H]1[C@@H](O)CC[C@H]4[C@@H](C2)N(C)CC[C@@]341` [dihydrocodeine], the “Cross-reactivity with the anti-morphine antibodies” value was “Cross-reactivity with the anti-morphine antibodies”.
In the case of `CCOC(=O)C1(c2ccccc2)CCN(C)CC1` [pethidine], the “Cross-reactivity with the anti-morphine antibodies” value is reported as “Cross-reactivity with the anti-morphine antibodies”.

— patent US20090137411A1, “Methods and biochips for detecting small molecule compounds” (priority 2004, published 2009)
